For data set [1] the following is noted: no reference given, cited from earlier work; for pKa of the carboxyl groups: general value.
For data set [2], the system named is Tet^R E. coli. Briefly: MIC against Tet^R E. coli. Type of data set: cell-based. To be noted: Escherichia coli, read-out: MIC Tet^R E. coli.
For data set [3], the system named is S. aureus 1199B. Briefly: Checkerboard combination with norfloxacin. Type of data set: cell-based, Staphylococcus aureus. An excerpt:
Each of the checkerboard analyses shown in Figure 7 combines one of 1–6 with norfloxacin. S. aureus 1199B is resistant to norfloxacin. By combining varying concentrations of both norfloxacin and a lariat ether or lariat ether derivative, potency enhancement, if any, can be determined. In the graphs (checkerboards) shown, the potency of each concentration combination can be assessed visually.
In both cases, the concentrations varied by a factor of two. Four controls were employed on each checkerboard plate: full growth (only cells), no growth (only media), and then a column for each drug alone to accurately reflect their individual MIC values. The concentrations of amphiphile and antibiotic tested were ½, ¼, ^1/8, ^1/16, and ^1/32 of the MIC. Preparation of the stock solutions and plates was by the same method described in the minimum inhibitory concentration section.

The test system of data set [4] is S. aureus 1199B. Briefly: MIC against S. aureus 1199B. Type of data set: cell-based, Staphylococcus aureus. To be noted: for MIC: Staphylococcus aureus, 1199B, read-out: MIC S. aureus 1199B, MHII media, 90% growth inhibition.
In data set [5] the test system is S. aureus. Briefly: MIC against S. aureus under various pH and media conditions. Type of data set: cell-based, Staphylococcus aureus. To be noted: for Change in MIC as the pH was increased from 6.4 to 8.4: S. aureus, Mueller Hinton medium.
In data set [6] the test system is K12 E. coli. The data set is described as follows: MIC against K12 E. coli. The class given is cell-based.
Data set [7] deals with human embryonic kidney (HEK-293) cells. The data set is described as follows: Cytotoxicity against HEK-293 cells. The class given is cell-based. The following applies: three independent trials. An excerpt:
(§1) The potential toxicity of 1–6 is a critical factor in their application either as an antimicrobial or an adjuvant. In vitro toxicity studies were therefore conducted using human embryonic kidney (HEK-293) and simian kidney (COS-7) cells. The graphs shown in Figure 20 show the percentage survival of each cell type as a function of lariat ether concentration on the logarithmic x-axis. In each graph, the IC50 value is specified for each compound and cell type. The value of IC50 is the concentration of lariat ether that inhibits the growth of 50% of the cells studied.
(§2) The cytotoxicity experiments were conducted as described in [44].

In data set [8] the test system is DH5α E. coli. Briefly: MIC against DH5α E. coli. The class given is cell-based. To be noted: Escherichia coli, read-out: Minimum inhibitory concentration against DH5α E. coli.
The nature of data set [9]: Turbidimetric solubility limit in MHII or PBS. The following applies: DMSO ≤0.5%. The class given is physicochemical.
Data set [10] concerns simian kidney (COS-7) cells. Briefly: Cytotoxicity against COS-7 cells. Type of data set: cell-based. The following applies: Chlorocebus aethiops, COS-7, percentage survival, three independent trials.
Source text: as §1, §2

Data set [11] concerns S. aureus (1199B). Briefly: Membrane permeability (propidium iodide / alamar blue). The class given is cell-based, Staphylococcus aureus. To be noted: compound at ½ MIC. Here is the method:
Membrane permeability was assessed by using the dyes propidium iodide and alamar blue. […] However, when PI does enter a cell, it intercalates within the DNA structure. […] When intercalation occurs, a strong fluorescent emission can be detected. Alamar blue, based on resazurin, is a nontoxic weakly fluorescent dye that is sensitive to reduction potential within vital cells. When reduced, it is converted into highly fluorescent resorufin (7-hydroxy-3H-phenoxazin-3-one).
The combination of alamar blue and propidium iodide allowed us to assess the membrane permeability of S. aureus while confirming cellular vitality. Results of the PI/alamar blue studies with S. aureus are summarized in the graph of Figure 5. When S. aureus (1199B) was exposed to the two dyes, penetration of PI was relatively low and cellular vitality remained high. […] In general, cellular penetration and vitality correlated.
Membrane permeability studies were conducted as detailed in [48].

The nature of data set [12]: Dynamic light scattering of C12LE aggregation. Type of data set: physicochemical. To be noted: for Slope of C12LE aggregation (DLS particle size): water, in the presence of the antimicrobial or C12LE alone. How it is done: It is known that dialkyldiazacrowns form stable aggregates in aqueous solution [57, 62]. It was hypothesized that complexation between antimicrobials and macrocycles would alter or prevent the ability of the complex to form aggregates. […] Indeed, the particle sizes observed when chlortetracycline is present was almost indistinguishable from particle formation by C12LE (4) alone.
Measurements were performed on a Brookhaven Instruments Corp. ZetaPALS instrument at 25 °C using a 660 nm laser and correlating scattering at 90°. Samples were prepared by initially dissolving the amphiphile in filtered DMSO obtained from ThermoFisher. Next, they were diluted into 1× PBS such that DMSO was fixed at 0.5% in 15 mL sterile conical tubes. 10× PBS was obtained commercially, then diluted 10-fold in MQ H2O. The mixture was vortexed and incubated at room temperature for 2 h, then transferred to a clean quartz cuvette and equilibrated in the instrument for 10 min at 25 °C. Ten measurements consisting of 2 min runs were made on each sample. The average effective diameter was calculated with standard error reported for at least three trials.

Data set [13] deals with DH5α E. coli. More on the design: method as in PMID 15858645. To be noted: free bases, previously reported data; cited from earlier work.
Setting [14] is: Homo sapiens, HEK293, percentage survival.
Where [15] appears, read: Escherichia coli, MHII media, 90% growth inhibition, read-out: MIC K12 E. coli.
The mark [16] stands for this setting: no additional antimicrobial, MICs in table limited to […].

Converted amounts (≈) assume the structure as drawn. Where two headings read alike, the source gives them in different places. Some results are limits rather than exact numbers.

As to `CC1(C)S[C@@H]2[C@H](NC(=O)[C@H](N)c3ccccc3)C(=O)N2[C@H]1C(=O)O` [Ampicillin, ampicillin], the “pKa of the carboxyl groups” value in data set [1] is on record as 2.6–2.8.
As to `CCCCCCCCCCN1CCOCCOCCN(CCCCCCCCCC)CCOCCOCC1` [C10LE (1), N,N′-Di-n-decyl-4-13-diaza-18-crown-6], the MIC in data set [2] was 8 µM (≈ 4.34 µg/mL); in data set [5] (MH medium, read-out: MIC S. aureus, MH), 16 µM (≈ 8.69 µg/mL); in data set [5] (MHII, pH 6.4, read-out: MIC S. aureus, MHII pH 6.4), 16 µM (≈ 8.69 µg/mL); in [5] (MHII, pH 7.4, read-out: MIC S. aureus, MHII pH 7.4), ≥16 µM; in data set [5] (MHII, pH 8.4, read-out: MIC S. aureus, MHII pH 8.4), 32 µM (≈ 17.4 µg/mL); in data set [5] (Staphylococcus aureus, MH + Ca2+, read-out: MIC S. aureus, MH + Ca^2+), 16 µM. The MIC in data set [6] (MHII media, 90% growth inhibition, read-out: MIC K12 E. coli) stood at 10 µM (≈ 5.43 µg/mL); in data set [8] it was 11 µM (≈ 5.97 µg/mL). In addition, in [3] (lariat ether co-administered at 2 µM), the “Norfloxacin concentration required to effect 90% growth inhibition” value is listed as 0.5 µM. In [3] (norfloxacin-resistant S. aureus 1199B, checkerboard), the “Fold increase in the potency of norfloxacin” value is 128 fold. The “MIC S. aureus 1199B” value in data set [4] (MHII media, 90% growth inhibition) came out at 8 µM (≈ 4.34 µg/mL). Further, the “Change in MIC as the pH was increased from 6.4 to 8.4” value in data set [5] is “changes in MIC were observed”. The IC50 in data set [7] (setting [14]) is 13 µM; in data set [7] (percentage survival), ≤ 10 µM. Also, the solubility at 2 h was ≥128 µM in data set [9] (Mueller Hinton II, pH 7.3, 2 h at 37 °C, read-out: Solubility limit in MHII) and ≥128 µM in data set [9] (phosphate-buffered saline, 2 h at 37 °C, read-out: Solubility limit in PBS).
Regarding `CCCCCCCCCCCC[N+]1(C)CCOCCOCC[N+](C)(CCCCCCCCCCCC)CCOCCOCC1` (stereo not drawn) [C12LE•2MeI (6), N,N′-Di-n-dodecyl-4-13-diaza-18-crown-6 bis(methiodide)], the MIC amounted to 16 µM in data set [2]; 1 µM in data set [4]; 2 µM in data set [5] (Staphylococcus aureus, pH 6.4, MHII, pH 6.4, read-out: MIC S. aureus, MHII pH 6.4); 2 µM in [5] (Staphylococcus aureus, pH 7.4, MHII, pH 7.4, read-out: MIC S. aureus, MHII pH 7.4); 2 µM in data set [5] (Staphylococcus aureus, pH 8.4, MHII, pH 8.4, read-out: MIC S. aureus, MHII pH 8.4); 4 µM in [6] (setting [15]). Moreover, the MIC in data set [8] (setting [16]) is 2 µM. Besides, the values for the IC50 in data set [10], in data set [7] (setting [14]) and in data set [7] (percentage survival) were 25 µM, 11 µM and ≤ 10 µM, respectively. Also, the “Change in MIC as the pH was increased from 6.4 to 8.4” value in [5] is “unchanged”. Further, the “PI penetration (membrane permeability)” value in data set [11] is “level of PI penetration similar to that observed for S. aureus alone”. Besides, the solubility at 2 h in data set [9] (Mueller Hinton II broth, 37 °C, pH 7.3, plasma or biological fluid, kinetic from dmso stock, Mueller Hinton II, pH 7.3, 2 h at 37 °C, read-out: Solubility limit in MHII) was 1 to 2 µM; in [9] (phosphate-buffered saline, 37 °C, aqueous buffer, kinetic from dmso stock, phosphate-buffered saline, 2 h at 37 °C, read-out: Solubility limit in PBS) it was ≥ 128 µM.
For `CO/N=C(\C(=O)N[C@@H]1C(=O)N2C(C(=O)[O-])=C(C[N+]3(C)CCCC3)CS[C@H]12)c1csc(N)n1` [Cefepime, cefepime], in data set [12], the “Slope of C12LE aggregation (DLS particle size)” value (shortened to “Slope of C12LE aggregation”) came out at 3.2.
Turning to `O=C(O)c1cn(C2CC2)c2cc(N3CCNCC3)c(F)cc2c1=O` [Ciprofloxacin, ciprofloxacin], the “Slope relative to the particle size profile of C12LE alone” value in data set [12] (DLS) is recorded as “about 60%”. In addition, the “Slope of C12LE aggregation” value in [12] came to 1.8.
Take `NC[C@H]1O[C@H](O[C@H]2[C@H](O)[C@@H](O[C@H]3O[C@H](CO)[C@@H](O)[C@H](N)[C@H]3O)[C@H](N)C[C@@H]2N)[C@H](O)[C@@H](O)[C@@H]1O` [Kanamycin, kanamycin]: in [12], the “Slope of C12LE aggregation” value is recorded as 2.5.
As to `CCn1cc(C(=O)O)c(=O)c2cc(F)c(N3CCNCC3)cc21` [Norfloxacin, reference compound], the MIC in data set [4] was 64 µM (≈ 20.4 µg/mL); in data set [6] (setting [15]) it was 0.125 µM (≈ 0.0399 µg/mL).
`CC1(C)S[C@@H]2[C@H](NC(=O)Cc3ccccc3)C(=O)N2[C@H]1C(=O)O` [Penicillin G, penicillin G]: the “pKa of the carboxyl groups” value in [1] is given as 2.6–2.8.
On to `CCCCN1CCOCCOCCN(CCCC)CCOCCOCC1` [di-n-butyl-diaza-18-crown-6], for which, in [1], the “pK1 of macro ring nitrogen atoms” value was 9.40 and the “pK2 of macro ring nitrogen atoms” value is listed as 7.97.
For the compound `CCCCCCCC[N+]1(C)CCOCCOCC[N+](C)(CCCCCCCC)CCOCCOCC1` (stereo not drawn) [n-octyl LE•MeI], the MIC in data set [8] (setting [16]) is > 128 µM.
As for `CCCCCCCCCCCCCCN1CCOCCOCCN(CCCCCCCCCCCCCC)CCOCCOCC1` [n-tetradecyl LE], the MIC in data set [6] (Escherichia coli, read-out: MIC K12 E. coli, MHII media, 90% growth inhibition) was ≥ 128 µM. Further, the “Minimum inhibitory concentration against DH5α E. coli” value in [13] was >128 µM.
Take `CCCCCCCCCCCCCC[N+]1(C)CCOCCOCC[N+](C)(CCCCCCCCCCCCCC)CCOCCOCC1` (stereo not drawn) [n-tetradecyl LE•MeI]: the MIC in data set [8] (setting [16]) is > 128 µM.
In the case of `CCCCCCCCCCCN1CCOCCOCCN(CCCCCCCCCCC)CCOCCOCC1` [n-undecyl LE, N,N′-Di-n-undecyl-4,13-diaza-18-crown-6], the “Minimum inhibitory concentration against DH5α E. coli” value in [13] is 20 µM (≈ 11.4 µg/mL).

These data come from PMC10603992, “Antimicrobial and Adjuvant Potencies of Di-n-alkyl Substituted Diazalariat Ethers” (Antibiotics, 2023).
